# Read-outs that look alike come from different tables or passages of the source. Where no end group is shown, it is not given here.
# Tests used:
# S. aureus LS-1 = conditions: mice; cited from earlier work
# [1] = test system: bacterial adhesion to polystyrene, silicone and polyurethane; conditions: cited from earlier work
# [2] = test system: S. epidermidis GISE strain; experiment: Rat subcutaneous Dacron graft infection model, GISE strain; assay type: in vivo; conditions: for Bacterial concentration, GISE: 2×10^7 bacteria, explanted day 7; for Bacterial concentration, GISE / Bacterial load on graft, GISE: mean ± SD; for Bacterial load on graft, GISE: Table 3A S. epidermidis
# Description: (§1) Rats (Wistar adult males (300-350 g), n=15/experimental group) were anaesthetized, hair on their back shaved and the skin cleansed with 10% povidone-iodine solution. A subcutaneous pocket was made on the side of the median line by a 1.5 cm incision. Aseptically, 1 cm^2 sterile collagen-sealed Dacron graft (Albograft™, Sorin Biomedica Cardio, S.p.A., Saluggi VC, Italy) was implanted into the pocket. […] Pockets were closed by skin clips and 1 ml sterile saline solution with or without 2×10^7 bacteria was inoculated onto the graft surface using a tuberculin syringe to create a subcutaneous fluid-filled pocket. Some of the animals that had grafts soaked only with RIP or saline were injected intraperitoneally with antibiotics (cefazolin 30 mg/kg, imipenem 30 mg/kg, teicoplanin 10 mg/kg, levofloxacin 10 mg/kg). Grafts were explanted 7 days following implantation.
# (§2) The explanted grafts were placed in sterile tubes, washed in sterile saline solution, placed in tubes containing 10 ml of phosphate-buffered saline solution and sonicated for 5 min to remove the adherent bacteria from the grafts. Quantitation of viable bacteria was performed by culturing serial 10-fold dilutions (0.1 ml) of the bacterial suspension on blood agar plates. All plates were incubated at 37° C. for 48 hr and evaluated for the presence of the strain. Bacteria were quantitated by counting the number of colony forming unites (CFU) per plate. To determine if bacteria were efficiently removed from the graft, washed and sonicated grafts were observed under a Nikon Eclipse E 600 optical microscope (Nikon Y-THS, Japan).
# (§3) Quantitative culture results of the in vivo experiments were presented as mean+SD of the mean. Comparisons of the results were performed by the analysis of variance (ANOVA) on the log-transformed data. Statistical analysis was performed for in vitro adhesion assays using Student's t-Test by Microsoft Excel (Microsoft, Wash.). Significance was accepted when the P value was <0.05.
# (§4) To test if RIP can prevent graft-associated infections, Dacron grafts were coated with or without RIP, and with or without various types of antibiotics (for local prophylaxis experiments). Coated grafts were implanted in rats, bacteria injected into the implants, implants removed after a week, and bacterial load determined. Alternatively, Dacron grafts were first coated with RIP, bacteria injected, and antibiotics were administered by the intraperitoneal route (for parenteral prophylaxis experiments). As a negative control, grafts were implanted without local or parenteral RIP/antibiotics prophylaxis and no bacteria were injected. As a positive control, grafts were implanted, bacteria were injected, but no RIP/antibiotics prophylaxis was given.
# (§5) Animals (15/group) received a Dacron-graft implanted in a subcutaneous pocket. Graft was subsequently infected with either S. epidermidis (tested on MSSE, MRSE and GISE) or with S. aureus (tested on MSSA, MRSA and GISA). […]
# [3] = test system: S. epidermidis MSSE strain; experiment: Rat subcutaneous Dacron graft infection model, MSSE strain; assay type: in vivo; conditions: for Bacterial concentration, MSSE: 2×10^7 bacteria, explanted day 7; for Bacterial concentration, MSSE / Bacterial load on graft, MSSE: mean ± SD; for Bacterial load on graft, MSSE: Table 3A S. epidermidis
# Description: as §1, §2, §3, §4, §5
# S. aureus MS = conditions: rabbits; cited from earlier work
# S. aureus 8325-4 = conditions: rabbits; cited from earlier work
# [4] = test system: S. epidermidis adherence to polystyrene; experiment: Adherence and biofilm formation of S. epidermidis on polystyrene (safranin); assay type: cell-based; conditions: polystyrene microtiter plates, 3 hrs
# Description: FIG. 14B is a graph depicting adherence in the presence of RIP RIP+ and in the absence of RIP RIP−. S. epidermidis were grown in polystyrene plates for 3 hrs, adherent bacteria were stained by safranin, and absorbance at 490 nm was determined.
# To test whether RIP reduces adherence and biofilm formation of S. epidermidis to plastic, early exponential S. epidermidis were grown for 3 hrs in microtiter plates made of polystyrene, and adherent cells were stained with safranin. These experimental conditions allow for biofilm to be formed (as observed by atomic force microscopy, not shown).
# S. aureus MSSA = experiment: Rat subcutaneous Dacron graft infection model, MSSA strain; assay type: in vivo; conditions: Table 3B S. aureus, mean ± SD
# Description: as §1, with “implantation. Estimated RIP that adhered to graft was 10-26 μg.” for “implantation.”
# as §2
# Animals (15/group) received a Dacron-graft implanted in a subcutaneous pocket. Graft was subsequently infected with either S. epidermidis (tested on MSSE, MRSE and GISE) or with S. aureus (tested on MSSA, MRSA and GISA). The Dacron-graft prior to implantation was soaked in saline with or without 20 mg/l of RIP and some animals received […] of RIP i.p. as a prophylaxis treatment.
# TRAP = conditions: 1 hr
# Description: S. aureus (right panel) and S. epidermidis (left panel) were in vivo phosphorylated for 1 hr in the presence or absence of RIP. Total cell homogenate was separated by SDS PAGE and the gel was autoradiographed.
# To test for TRAP phosphorylation in S. epidermidis, in vivo phosphorylation assays were carried out as described for S. aureus. Briefly, early exponential S. epidermidis were grown in the presence of phosphate-free buffer supplemented with radiolabeled orthophosphate with or without RIP (10 μg/10^7 cells). After a 1 hr incubation period, the cells were collected by centrifugation, treated with lysostaphin followed by the addition of sample buffer, and total cell homogenate was applied without boiling to 15% SDS PAGE and the gel autoradiographed. The same experiment was carried out on 6390B S. aureus cells as a positive control.
# [5] = test system: bacterial adhesion to HEp2 cells; conditions: cited from earlier work
# [6] = A. Local prophylaxis: graft soaked 20 min in RIP 10 mg/l and/or antibiotic (mupirocin 100, quinupristin-dalfopristin 50, levofloxacin 30, rifampin 5 mg/l), rats
# [7] = B. Parenteral prophylaxis: antibiotic intraperitoneally (cefazolin 30, imipenem 30, teicoplanin 10, levofloxacin 10 mg/kg), RIP as 10 mg/l graft soak, rats
# [8] = RIP local (graft soaked in 20 mg/l RIP)
# [9] = RIP parenteral (10 mg/l RIP i.p.)
# [10] = peptide-soaked/coated Dacron graft (RIP 10 mg/l), no antibiotic, rats, day 7
substance,measurement,setting,value
YSPWTNF(—NH2) (YSPWTNF-NH2) [RIP],Suppressing S. aureus infection: septic arthritis,S. aureus LS-1,extremely effective
same,Bacterial adhesion to plastic,[1],decreased
same,"Bacterial concentration, GISE",[2]; [6],6.2 ± 2.4 ×10^4 CFU/ml
same,"Bacterial concentration, GISE",[2]; [7],6.2 ± 2 ×10^4 CFU/ml
same,"Bacterial load on graft, GISE",[2]; [8],0.46 ± 0.13 ×10^4 CFU/ml
same,"Bacterial load on graft, GISE",[2]; RIP local + RIP parenteral,0.00 ± 0 ×10^4 CFU/ml
same,"Bacterial load on graft, GISE",[2]; [9],0.31 ± 0.6 ×10^4 CFU/ml
same,"Quantitative culture results of explanted graft, GISE strain",[2]; [10],6.2×10^4±2.0×10^4 CFU/ml
same,RIP graft treatment inhibiting bacteria better than parenteral antibiotics prophylaxis,[2]; rats inoculated with GISE,10 to 100 fold
same,"Bacterial concentration, MSSE",[3]; [6],0.91 ± 0.23 ×10^4 CFU/ml
same,"Bacterial concentration, MSSE",[3]; [7],0.91 ± 0.23 ×10^4 CFU/ml
same,"Bacterial load on graft, MSSE",[3]; [8],0.08 ± 0.024 ×10^4 CFU/ml
same,"Bacterial load on graft, MSSE",[3]; RIP local + RIP parenteral,0.00 ± 0 ×10^4 CFU/ml
same,"Bacterial load on graft, MSSE",[3]; [9],0.067 ± 0.019 ×10^4 CFU/ml
same,"Quantitative culture results of explanted graft, MSSE strain",[3]; [10],9.1×10^3±2.3×10^3 CFU/ml
same,Suppressing S. aureus infection: osteomyelitis,S. aureus MS,extremely effective
same,Suppressing S. aureus infection: keratitis,S. aureus 8325-4,extremely effective
same,Number of cells that adhered to the plastic,[4],significantly reduced
same,"Bacterial load on graft, MSSE",S. aureus MSSA; [8],0.55 ± 0.19 ×10^4 CFU/ml
same,"Bacterial load on graft, MSSE",S. aureus MSSA; RIP local + RIP parenteral,0.00 ± 0 ×10^4 CFU/ml
same,"Bacterial load on graft, MSSE",S. aureus MSSA; [9],0.045 ± 0.009 ×10^4 CFU/ml
same,TRAP phosphorylation,"TRAP; RIP 10 μg/10^7 cells, S. epidermidis",can be inhibited
same,TRAP phosphorylation,"TRAP; in presence or absence of RIP, S. aureus",inhibits TRAP phosphorylation
same,Bacterial adhesion to eukaryotic cells,[5],decreased

# Source: patent US8067015B2, “Methods and compositions for the treatment and prevention of Staphylococcus and other bacterial infections” (priority 1997, dated 2011)
